Where only a bound is given, the exact number is not on record here.

Holding throughout (format): cell-based
Assay [1] concerns the target T1, APOL1 G2 (Homo sapiens, UniProt O14791, DEL388-389).
T1 construct: expressed in transfected cells; host or cells: HEK293 T-REx clonal line stably expressing GCaMP6f (HEK T-REx/GCaMP6f/APOL1 G2 K6.3), doxycycline induced
T1 sequence (O14791 with tags, fused parts or gaps DEL388-389): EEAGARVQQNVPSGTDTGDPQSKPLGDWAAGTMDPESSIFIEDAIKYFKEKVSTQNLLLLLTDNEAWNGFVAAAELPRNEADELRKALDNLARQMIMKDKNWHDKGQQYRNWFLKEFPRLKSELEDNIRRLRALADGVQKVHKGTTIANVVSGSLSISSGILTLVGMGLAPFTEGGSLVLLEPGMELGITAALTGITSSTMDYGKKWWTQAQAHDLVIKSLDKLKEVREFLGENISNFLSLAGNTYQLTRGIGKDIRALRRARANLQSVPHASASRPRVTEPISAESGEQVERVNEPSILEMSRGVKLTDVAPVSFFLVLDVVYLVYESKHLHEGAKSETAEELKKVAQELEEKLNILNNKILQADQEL
Put plainly: APOL1-mediated calcium transport (calcium influx) assay, HEK T-REx/GCaMP6f/APOL1 G2 K6.3 cells, FLIPR TETRA. The settings on record: prevention of calcium influx; geometric mean of at least 2 assay runs; † = average of a technical replicate from a single assay run. As for the experimental part: A HEK293 clonal cell line was generated to stably express GCaMP6f, a genetically encoded calcium indicator, and inducibly express APOL1 G2 (HEK T-REx/GCaMP6f/APOL1 G2 K6.3). Cells were maintained in the following standard complete medium: DMEM with 4.5 g/L glucose and sodium pyruvate (BioWhittaker, Lonza, BE12-614F), supplemented with 10% FBS Performance Plus (Gibco, 16000044), 1% penicillin-streptomycin (BioWhittaker, DE17-602E), 2 mM ultraglutamine-1 (BioWhittaker cat. BE 17-605/U1), 50 μg/mL Zeocin (InvivoGen, ant-zn), 2.5 μg/mL Blasticidin (InvivoGen, ant-bl-5), and 25 μg/mL Hygromycin (InvivoGen, ant-hg). Standard propagation conditions consisted of plating 9×10^6, 4×10^6, 2×10^6 cells in a T225 flasks to be processed after 2, 3, or 4 days, respectively.
A source plate was generated containing 20 serially diluted compounds in DMSO (duplicate 8-point dose response). Next, 0.8 μL of compounds were transferred from the source plate to a destination plate prefilled with 79.2 μL of Ca^2+ free Tyrode's buffer (130 mM NaCl, 5 mM KCl, 1 mM MgCl2, 5 mM NaHCO3, 20 mM HEPES at pH 7.4). The destination plate was placed on a plate shaker (5 seconds at 2000 rpm) to mix. […] All transfer and mixing steps were conducted with an CyBi®-Well dispenser.
Cells were split by gently washing with DPBS (Euroclone, ECB4004L), followed by a 5-minute incubation (humidified, 37° C. with 5% CO2) with trypsin-EDTA solution (Euroclone, ECB3052D). Detached cells were diluted with standard complete medium without selective agents, counted, and plated in a 384 MTP microplate (GR4332CPL, Twin Helix) (10,000 cells/well in 25 μl/well) using a MATRIX WellMate dispenser. Plates were placed into a humidified incubator (37° C. with 5% CO2) overnight. The following day, 20 μL of doxycycline (Sigma, D9891) at 20 ng/mL in standard complete medium was added to cells with a CyBi® Drop dispenser to induce APOL1 G2 expression. After a 6-hour incubation (humidified, 37° C. with 5% CO2), cells were washed 3 times with Ca^2+ free Tyrode's Buffer (130 mM NaCl, 5 mM KCl, 1 mM MgCl2, 5 mM NaHCO3, 20 mM HEPES at pH 7.4) using a BIOTEK Microplate washer, such that 10 μL of buffer remained in each well after the final wash. Assay plates were then stored at room temperature for 10 minutes. Next, 10 μL of diluted compounds were transferred to the assay plate from the 2× compound plate using a CyBi®-Well dispenser. Compound incubation was then carried out at room temperature for 10 minutes. The assay plate was transferred to the FLIPR^TETRA and 20 μL of 10 mM Ca^2+ (final concentration=5 mM) Tyrode's buffer was injected.
Unless otherwise specified, AC50 and values are reported as the geometric mean of at least 2 assay runs on separate days. Each run represents the average of a technical replicate, where each compound was assayed twice in the same plate. A superscript t symbol indicates a value from the average of a technical replicate from a single assay run, where each compound was assayed twice in the same plate.
The AC50 values in Table 39 below reflect the compound's ability to prevent calcium influx by inhibiting APOL1. […] Compounds in Table 39 are referred to by the corresponding Compound Number in Table 1, which is also referred to in the synthetic examples. When one or more of the numbered compounds are identified by stereochemistry (for example, (R)- or (S)-), the specific stereoisomer for which data is provided in Table 39 may be identified by the elution order of such compound as described in the synthetic examples. For example, Compounds 39 and 40 are associated with Step 5 of Example 13, where Compound 39 is the first eluting enantiomer, and Compound 40 is the second eluting enantiomer in the chiral separation of Compound 38. For Table 39 below, n/a represents “not available”.

In assay [2] the test system is HEK293 cells overexpressing APOL1 G2. The experiment in a line: APOL1 G2 HEK293 cell rescue assay (reversal of cell death caused by overexpression of APOL1). To be noted: geometric mean of at least 2 assay runs, † = single assay run. An outline of the steps:
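Each compound tested in duplicate wells on one plate per run, with values usually the geometric mean across at least two runs on different days, occasionally from one run only. Read-out: concentration giving half-maximal rescue of APOL1 G2 overexpression-induced death of HEK293 cells.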

The subject of assay [3] is HEK293 clonal cell line overexpressing APOL1 G1. The experiment in a line: APOL1 G1 HEK293 cell rescue assay (Example B3). The settings on record: geometric mean of at least 2 runs, † = single run, ¥ = concentration at 50% rescue estimated (no sigmoidal curve). The essentials: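 Rescue of cell death caused by APOL1 G1 overexpression was measured in a clonal HEK293 line. Compounds were tested in duplicate on one plate, and EC50s were geometric means across at least two runs on different days. Some values are estimated 50%-rescue concentrations where curve fitting failed.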

[4] abbreviates: HEK293 clonal line overexpressing APOL1 G1.
Setting [5] is: Homo sapiens, HEK293, HEK293 overexpressing APOL1 G2.
[6] abbreviates: Homo sapiens, HEK293, HEK293 clonal line overexpressing APOL1 G1.

As for `CC(c1ccc(OCCN2CCC3(CC2)C(=O)Nc2ccc(Cl)cc23)cc1)S(C)(=O)=O` (single isomer, unassigned) [Compound 40, 5-chloro-1′-(2-{4-[(1R) or (1S)-1-methanesulfonylethyl]phenoxy}ethyl)-1,2-dihydrospiro[indole-3,4′-piperidin]-2-one], the AC50 in assay [1] stood at 657 nM. In addition, the EC50 in assay [2] (HEK293 overexpressing APOL1 G2) is 72 nM; in assay [3] (setting [4]) it was 294 nM.

For the compound `N#Cc1ccc2c(c1)C1(CCN(CCOc3ccc4c(c3)CCN3C(=O)NCC43)CC1)C(=O)N2` (single isomer, unassigned) [Compound 119, (S) or (R)-2-oxo-1′-[2-({3-oxo-1H,2H,3H,5H,6H,10bH-imidazo[4,3-a]isoquinolin-8-yl}oxy)ethyl]-1,2-dihydrospiro[indole-3,4′-piperidine]-5-carbonitrile], the AC50 in assay [1] worked out at 1010 nM. The values for the EC50 in assay [2] (setting [5]) and in assay [3] (setting [6]) were 435 nM and about 3400 nM, respectively.

With `N#Cc1ccc2c(c1)C1(CCN(CCOc3ccc4c(c3)CCN3C(=O)CCC43)CC1)C(=O)N2` (single isomer, unassigned) [Compound 125, (S) or (R)-2-oxo-1′-[2-({3-oxo-1H,2H,3H,5H,6H,10bH-pyrrolo[2,1-a]isoquinolin-8-yl}oxy)ethyl]-1,2-dihydrospiro[indole-3,4′-piperidine]-5-carbonitrile], the AC50 in assay [1] is 729 nM. For the same compound, the EC50 in assay [2] (setting [5]) was 355 nM; in assay [3] (setting [4]) it was over 4860 nM.

In the case of `N#Cc1ccc2c(c1)C1(CCN(CCOc3ccc4c(c3)CCN3C(=O)CCC43)CC1)C(=O)N2` (single isomer, unassigned) [Compound 126, (R) or (S)-2-oxo-1′-[2-({3-oxo-1H,2H,3H,5H,6H,10bH-pyrrolo[2,1-a]isoquinolin-8-yl}oxy)ethyl]-1,2-dihydrospiro[indole-3,4′-piperidine]-5-carbonitrile], the half-maximal activity concentration (AC50) in assay [1] was 624 nM. For the same compound, the EC50 in assay [2] (HEK293 overexpressing APOL1 G2) was 273 nM; in assay [3] (setting [4]), 1010 nM.

`CC(COc1ccc2c(c1)CCC(=O)N2C)N1CCC2(CC1)C(=O)Nc1ccc(Cl)cc12` (single isomer, unassigned) [Compound 201, chloro-1′-[(2R) or (2S)-1-[(1-methyl-2-oxo-1,2,3,4-tetrahydroquinolin-6-yl)oxy]propan-2-yl]-1,2-dihydrospiro[indole-3,4′-piperidin]-2-one]: the AC50 in assay [1] is 909 nM. Further, the EC50 is 609 nM in assay [2] (HEK293 overexpressing APOL1 G2) and 4920 nM in assay [3] (setting [4]).

Turning to `CC(COc1ccc2c(c1)CCC(=O)N2C)N1CCC2(CC1)C(=O)Nc1ccc(C#N)cc12` (single isomer, unassigned) [Compound 204, (R) or (S)-1′-{1-[(1-methyl-2-oxo-1,2,3,4-tetrahydroquinolin-6-yl)oxy]propan-2-yl}-2-oxo-1,2-dihydrospiro[indole-3,4′-piperidine]-5-carbonitrile], the AC50 in assay [1] is 869 nM. For the same compound, the EC50 is 1550 nM in assay [2] (HEK293 overexpressing APOL1 G2) and 1270 nM in assay [3] (setting [4]).

`CC(COc1ccc(S(C)(=O)=O)cc1)N1CCC2(CC1)C(=O)N(C1CC(O)C1)c1ccc(Cl)cc12` (single isomer, unassigned) [Compound 208, 5-chloro-1′-[(2R) or (2S)-1-(4-methanesulfonylphenoxy)propan-2-yl]-1-[(cis) or (trans)-3-hydroxycyclobutyl]-1,2-dihydrospiro[indole-3,4′-piperidin]-2-one]: the AC50 in assay [1] is 1550 nM. For the same compound, the EC50 was 238 nM in assay [2] (HEK293 overexpressing APOL1 G2) and 554 nM in assay [3] (setting [4]).

With `CC(COc1ccc(S(C)(=O)=O)cc1)N1CCC2(CC1)C(=O)N(C1CC(O)C1)c1ccc(Cl)cc12` (single isomer, unassigned) [Compound 209, 5-chloro-1′-[(2R) or (2S)-1-(4-methanesulfonylphenoxy)propan-2-yl]-1-[(trans) or (cis)-3-hydroxycyclobutyl]-1,2-dihydrospiro[indole-3,4′-piperidin]-2-one], in assay [1], the AC50 was determined as 1240 nM. The EC50 in assay [2] (HEK293 overexpressing APOL1 G2) was 3070 nM; in assay [3] (setting [4]) it was over 2840 nM.

Take `C[C@@H](COc1cc(F)c(S(C)(=O)=O)c(F)c1)N1CCC2(CC1)C(=O)Nc1ccc(C#N)cc12` (single isomer, unassigned) [Compound 213]: in assay [1], the AC50 came out at 1120 nM. Also, the EC50 is 189 nM in assay [2] (setting [5]) and 497 nM in assay [3] (setting [6]).

In the case of `CS(=O)(=O)c1ccc(OCCN2CCC3(CC2)C(=O)Nc2ccc(C#N)cc23)cc1C(F)CF` (single isomer, unassigned) [Compound 222, 1′-(2-{3-[(1R or 1S)-1,2-difluoroethyl]-4-methanesulfonyl-phenoxy}ethyl)-2-oxo-1,2-dihydrospiro[in-dole-3,4′-piperidine]-5-carbonitrile], in assay [1], the AC50 amounted to 783 nM. The EC50 is 141 nM in assay [2] (HEK293 overexpressing APOL1 G2) and 605 nM in assay [3] (setting [4]).

For the compound `CC(COc1ccc(C2(S(C)(=O)=O)COC2)cc1)N1CCC2(CC1)C(=O)Nc1ccc(C#N)cc12` (single isomer, unassigned) [Compound 264, (R) or (S)-1′-{1-[4-(3-methanesulfonyloxetan-3-yl)phenoxy]propan-2-yl}-2-oxo-1,2-dihydrospiro[indole-3,4′-piperidine]-5-carbonitrile], the AC50 in assay [1] is 1950 nM. In addition, the EC50 in assay [2] (HEK293 overexpressing APOL1 G2) was 2250 nM; in assay [3] (setting [4]), about 10000 nM.

`C[C@]1(O)C[C@@H](n2ncc3cc(OCCN4CCC5(CC4)C(=O)Nc4ccc(C#N)cc45)cnc32)C1` (single isomer, unassigned) [Compound 437, 2-oxo-1′-[2-({1-[(cis)-3-hydroxy-3-methylcyclobutyl]-1H-pyrazolo[3,4-b]pyridin-5-yl}oxy)ethyl]-1,2-dihydrospiro[indole-3,4′-piperidine]-5-carbonitrile]: the AC50 in assay [1] is 612 nM. Also, the EC50 in assay [2] (setting [5]) was 112 nM; in assay [3] (setting [6]) it was 186 nM.

The term AC50 denotes the concentration giving half of the maximal activity seen. What is called EC50 is the concentration needed to bring the measured effect to its halfway point.

These data come from patent US12344610B2, “APOL1 inhibitors and methods of use” (Maze Therapeutics, Inc., priority 2022, dated 2025).
